Test results taken from US8716292B2, “Riminophenazines with 2-(heteroaryl)amino substituents and their anti-microbial activity” (priority 2010, dated 2014).
Values after ≈ are worked out from the molar mass of the structure shown.

The compounds below were run on Mycobacterium tuberculosis H37Rv strains (assay: In vitro assay for antimicrobial susceptibility (microplate Alamar blue MIC)). Settings: Mycobacterium tuberculosis, H37RV, 7H9, Alamar blue, inhibition ≧90%; read-out: MIC (μg/mL) against H37Rv.
Format: cell-based

Row | Compound | MIC [µg/mL]
1 | CC(C)/N=c1\cc2n(-c3ccc(F)cc3)c3ccccc3nc-2cc1Nc1ncccc1[N+](=O)[O-] [TBI-1052, 5-(4-Fluorophenyl)-3-(1-methylethyl)imino-2-(3-nitro-2-pyridyl)amino-3,5-dihydrophenazine] | 0.022 (≈ 0.047 µM)
2 | O=[N+]([O-])c1cccnc1Nc1cc2nc3ccccc3n(-c3ccc(F)cc3)c-2c/c1=N\C1CCOCC1 [TBI-1088, 5-(4-Fluorophenyl)-3-(4-tetrahydropyranyl)imino-2-(3-nitro-2-pyridyl)amino-3,5-dihydrophenazine] | 0.028 (≈ 0.0548 µM)
3 | Clc1ccc(-n2c3c/c(=N\C4CCOCC4)c(Nc4cncnc4)cc-3nc3ccccc32)cc1 [TBI-960, 5-(4-Chlorophenyl)-3-(4-tetrahydropyranyl)imino-2-(pyrimidin-5-yl)amino-3,5-dihydrophenazine] | 0.03 (≈ 0.0621 µM)

Same assay, conditions: Mycobacterium tuberculosis, H37RV, in vitro, Mycobacterium tuberculosis H37Rv strains; read-out: MIC (μg/mL) against H37Rv

Row | Compound | MIC [µg/mL]
4 | Cc1ccc(-n2c3c/c(=N\C4CC4)c(Nc4cccnc4C)cc-3nc3ccccc32)cc1 [TBI-341, 5-(4-Methylphenyl)-3-cyclopropylimino-2-(2-methyl-3-pyridyl)amino-3,5-dihydrophenazine] | 0.014 (≈ 0.0324 µM)
5 | CC(=O)Nc1ccc(Nc2cc3nc4ccccc4n(-c4ccc(C(F)(F)F)cc4)c-3c/c2=N\C2CCCCC2)cn1 [TBI-713, 5-(4-Trifluoromethylphenyl)-3-cyclohexylimino-2-(6-acetamino-3-pyridyl)amino-3,5-dihydrophenazine] | 0.022 (≈ 0.0386 µM)
6 | Cc1ccc(-n2c3c/c(=N\C4CCCCC4)c(Nc4cccnc4)cc-3nc3ccccc32)cc1 [TBI-333, 5-(4-Methylphenyl)-3-cyclohexylimino-2-(3-pyridyl)amino-3,5-dihydrophenazine] | 0.061 (≈ 0.133 µM)
7 | c1ccc(-n2c3c/c(=N\C4CCN(C5CCCC5)CC4)c(Nc4cccnc4)cc-3nc3ccccc32)cc1 [TBI-060, 5-Phenyl-3-(N-cyclopentyl-4-piperidyl)imino-2-(3-pyridyl)amino-3,5-dihydrophenazine] | 1 (≈ 1.94 µM)
8 | CC(=O)Nc1ccc(-n2c3c/c(=N\C(C)C)c(Nc4ccc(C)nc4)cc-3nc3ccccc32)cc1 [TBI-1228, 5-(4-Acetamidophenyl)-3-(1-methylethyl)imino-2-(6-methyl-3-pyridyl)amino-3,5-dihydrophenazine] | 2.4 (≈ 5.03 µM)
9 | COc1ncccc1Nc1cc2nc3ccc(F)cc3n(-c3ccc(Cl)c(Cl)c3)c-2c/c1=N\C1CC1 [TBI-885, 7-Fluoro-5-(3,4-dichlorophenyl)-3-cyclopropylimino-2-(2-methoxy-3-pyridyl)amino-3,5-dihydrophenazine] | 0.06 (≈ 0.115 µM)
10 | OC1CCC(/N=c2\cc3n(-c4ccc(Br)cc4)c4ccccc4nc-3cc2Nc2cccnc2)CC1 (centres unmarked) [TBI-094, 5-(4-Bromophenyl)-3-(4-hydroxycyclohexyl)imino-2-(3-pyridyl)amino-3,5-dihydrophenazine] | 0.5 (≈ 0.925 µM)
11 | COc1ncccc1Nc1cc2nc3ccccc3n(-c3ccc(F)cc3)c-2c/c1=N\C1CCCCC1 [TBI-1009, 5-(4-Fluorophenyl)-3-cyclohexylimino-2-(2-methoxy-3-pyridyl)amino-3,5-dihydrophenazine] | 0.03 (≈ 0.0608 µM)
12 | Cc1ccc(Nc2cc3nc4ccc(F)cc4n(-c4ccc(Cl)cc4)c-3c/c2=N\C2CCCCC2)cn1 [TBI-918, 7-Fluoro-5-(4-chlorophenyl)-3-cyclohexylimino-2-(6-methyl-3-pyridyl)amino-3,5-dihydrophenazine] | 0.253 (≈ 0.494 µM)
13 | Cc1ccc(Nc2cc3nc4ccccc4n(-c4ccc(Cl)c(Cl)c4)c-3c/c2=N\C2CC2)cn1 [TBI-944, 5-(3,4-Dichlorophenyl)-3-cyclopropylimino-2-(6-methyl-3-pyridyl)amino-3,5-dihydrophenazine] | 0.06 (≈ 0.123 µM)
14 | Clc1ccc(-n2c3c/c(=N\C4CCOCC4)c(Nc4cccnc4)cc-3nc3ccccc32)cc1Cl [TBI-351, 5-(3,4-Dichlorophenyl)-3-(4-tetrahydropyranyl)imino-2-(3-pyridyl)amino-3,5-dihydrophenazine] | 0.079 (≈ 0.153 µM)
15 | Cc1ccc(Nc2cc3nc4ccccc4n(-c4ccc(Br)cc4)c-3c/c2=N\C2CC2)cn1 [TBI-100, 5-(4-Bromophenyl)-3-cyclopropylimino-2-(6-methyl-3-pyridyl)amino-3,5-dihydrophenazine] | 0.011 (≈ 0.0222 µM)
16 | COC1CCC(/N=c2\cc3n(-c4ccc(Br)cc4)c4ccccc4nc-3cc2Nc2ccc(C)nc2)CC1 (centres unmarked) [TBI-503, 5-(4-Bromophenyl)-3-(4-methoxycyclohexyl)imino-2-(6-methyl-3-pyridyl)amino-3,5-dihydrophenazine] | 0.097 (≈ 0.171 µM)
17 | Cc1ccc(Nc2cc3nc4cc(F)ccc4n(-c4ccc(Cl)c(Cl)c4)c-3c/c2=N\C2CCOCC2)cn1 [TBI-873, 8-Fluoro-5-(3,4-dichlorophenyl)-3-(4-tetrahydropyranyl)imino-2-(6-methyl-3-pyridyl)amino-3,5-dihydrophenazine] | 0.076 (≈ 0.139 µM)
18 | CC(=O)Nc1ccc(Nc2cc3nc4ccccc4n(-c4ccc(F)cc4)c-3c/c2=N\C2CCN(CC(C)C)CC2)cn1 [TBI-913, 5-(4-Fluorophenyl)-3-(N-isobutyl-4-piperidyl)imino-2-(6-acetamino-3-pyridyl)amino-3,5-dihydrophenazine] | 0.144 (≈ 0.249 µM)
19 | COc1ncccc1Nc1cc2nc3ccccc3n(-c3ccc(C)cc3)c-2c/c1=N\C1CCOCC1 [TBI-310, 5-(4-Methylphenyl)-3-(4-tetrahydropyranyl)imino-2-(2-methoxy-3-pyridyl)amino-3,5-dihydrophenazine] | 0.03 (≈ 0.061 µM)
20 | Clc1cccc(-n2c3c/c(=N\C4CC4)c(Nc4cccnc4)cc-3nc3ccccc32)c1 [TBI-812, 5-(3-Chlorophenyl)-3-cyclopropylimino-2-(3-pyridyl)amino-3,5-dihydrophenazine] | 0.013 (≈ 0.0297 µM)
21 | Cc1ccc(Nc2cc3nc4ccccc4n(-c4ccccc4)c-3c/c2=N\C2CC2)cn1 [TBI-095] | 0.048 (≈ 0.115 µM)

Row | Compound | MIC [µg/mL]
22 | Cc1ncccc1Nc1cc2nc3ccccc3n(-c3cccc(OC(F)(F)F)c3)c-2c/c1=N\C(C)C [TBI-1032, 5-(3-Trifluoromethoxyphenyl)-3-(1-methylethyl)imino-2-(2-methyl-3-pyridyl)amino-3,5-dihydrophenazine] | 0.107 (≈ 0.213 µM)
23 | Cc1ncccc1Nc1cc2nc3ccccc3n(-c3ccc(F)cc3)c-2c/c1=N\C1CCCCC1 [TBI-1023, 5-(4-Fluorophenyl)-3-cyclohexylimino-2-(2-methyl-3-pyridyl)amino-3,5-dihydrophenazine] | 0.0075 (≈ 0.0157 µM)
24 | CC(C)CN1CCC(/N=c2\cc3n(-c4ccc(C(F)(F)F)cc4)c4ccccc4nc-3cc2Nc2cccnc2)CC1 [TBI-687, 5-(4-Trifluoromethylphenyl)-3-(N-isobutyl-4-piperidyl)imino-2-(3-pyridyl)amino-3,5-dihydrophenazine] | 0.06 (≈ 0.105 µM)
25 | COc1ncccc1Nc1cc2nc3ccccc3n(-c3ccc(C)cc3)c-2c/c1=N\C(C)C [TBI-308, 5-(4-Methylphenyl)-3-(1-methylethyl)imino-2-(2-methoxy-3-pyridyl)amino-3,5-dihydrophenazine] | 0.125 (≈ 0.278 µM)
26 | COc1ncccc1Nc1cc2nc3ccccc3n(-c3ccc(Br)cc3)c-2c/c1=N\C1CCOCC1 [TBI-518, 5-(4-Bromophenyl)-3-(4-tetrahydropyranyl)imino-2-(2-methoxy-3-pyridyl)amino-3,5-dihydrophenazine] | 0.02 (≈ 0.0359 µM)
27 | CC(C)CN1CCC(/N=c2\cc3n(-c4ccc(OC(F)(F)F)cc4)c4ccccc4nc-3cc2Nc2cccnc2)CC1 [TBI-158, 5-(4-Trifluoromethoxyphenyl)-3-(N-isobutyl-4-piperidyl)imino-2-(3-pyridyl)amino-3,5-dihydrophenazine] | 0.03 (≈ 0.0511 µM)
28 | CO[C@H]1CC[C@H](/N=c2\cc3n(-c4ccc(F)cc4)c4ccccc4nc-3cc2Nc2ccc(C)nc2)CC1 [TBI-907, 5-(4-Fluorophenyl)-3-(1′,4′-trans-4-methoxycyclohexyl)imino-2-(6-methyl-3-pyridyl)amino-3,5-dihydrophenazine] | 0.063 (≈ 0.124 µM)
29 | COc1ccc(Nc2cc3nc4ccccc4n(-c4ccc(F)cc4)c-3c/c2=N\C(C)C)cn1 [TBI-930] | 0.494 (≈ 1.09 µM)
30 | Fc1ccc(-n2c3c/c(=N\C4CC4)c(Nc4cccnc4)cc-3nc3ccccc32)cc1F [TBI-1429, 5-(3,4-Difluorophenyl)-3-cyclopropylimino-2-(3-pyridyl)amino-3,5-dihydrophenazine] | 0.011 (≈ 0.025 µM)
31 | Cc1ccc(Nc2cc3nc4cc(F)ccc4n(-c4ccc(OC(F)(F)F)cc4)c-3c/c2=N\C2CC2)cn1 [TBI-864, 8-Fluoro-5-(4-trifluoromethoxyphenyl)-3-cyclopropylimino-2-(6-methyl-3-pyridyl)amino-3,5-dihydrophenazine] | 0.057 (≈ 0.11 µM)
32 | COC1CCC(/N=c2\cc3n(-c4ccccc4)c4ccccc4nc-3cc2Nc2ccc(C)nc2)CC1 (centres unmarked) [TBI-072, 5-Phenyl-3-(4-methoxycyclohexyl)imino-2-(6-methyl-pyridyl)amino-3,5-dihydrophenazine] | 0.091 (≈ 0.186 µM)
33 | Fc1ccc(-n2c3c/c(=N\C4CCCCC4)c(Nc4cccnc4)cc-3nc3ccccc32)cc1F [TBI-527, 5-(3,4-Difluorophenyl)-3-cyclohexylimino-2-(3-pyridyl)amino-3,5-dihydrophenazine] | 0.039 (≈ 0.081 µM)
34 | Cc1ccc(-n2c3c/c(=N\CCN4CCOCC4)c(Nc4ccc(C)nc4)cc-3nc3ccccc32)cc1 [TBI-318, 5-(4-Methylphenyl)-3-(2-morpholinoethyl)imino-2-(6-methyl-3-pyridyl)amino-3,5-dihydrophenazine] | 0.087 (≈ 0.172 µM)
35 | Cc1ncccc1Nc1cc2nc3ccccc3n(-c3ccccc3)c-2c/c1=N\C(C)C [TBI-073, 5-Phenyl-3-(1-methylethyl)imino-2-(2-methyl-3-pyridyl)amino-3,5-dihydrophenazine] | 0.058 (≈ 0.138 µM)
36 | COc1ncccc1Nc1cc2nc3ccccc3n(-c3ccc(C(F)(F)F)cc3)c-2c/c1=N\CCN1CCOCC1 [TBI-704, 5-(4-Trifluoromethylphenyl)-3-(2-morpholinoethyl)imino-2-(2-methoxy-3-pyridyl)amino-3,5-dihydrophenazine] | 0.061 (≈ 0.106 µM)
37 | COC1CCC(/N=c2\cc3n(-c4ccc(Cl)c(Cl)c4)c4ccccc4nc-3cc2Nc2cccnc2)CC1 (centres unmarked) [TBI-352, 5-(3,4-Dichlorophenyl)-3-(4-methoxycyclohexyl)imino-2-(3-pyridyl)amino-3,5-dihydrophenazine] | 0.096 (≈ 0.176 µM)
38 | Cc1ccc(Nc2cc3nc4ccccc4n(-c4ccc(F)cc4)c-3c/c2=N\C2CCN(C)CC2)cn1 [TBI-901, 5-(4-Fluorophenyl)-3-(N-methyl-4-piperidyl)imino-2-(6-methyl-3-pyridyl)amino-3,5-dihydrophenazine] | 0.102 (≈ 0.207 µM)
